Patent publication US11518755B2, “Stable solutions of multicyclic antidepressants” (Leyden Technologies B.V., priority 2017, dated 2022)

Experiment: Solubility of clozapine in different solvent systems (excess clozapine, shaken 24 hours, HPLC)
Type: physicochemical
Experimental: For clozapine, solutions of 20 mg/mL or more are preferred for oral administration of the solution. For soft gel capsules an even higher concentration is preferable. Therefore, a solubility study for clozapine was performed. An excess of clozapine was weighed in a HPLC vial and 1.0 mL of various solvent systems was added. Following, the mixture was placed on a mechanical shaker for 24 hours at 200 RPM and analysed by HPLC for clozapine content.

Question: Which “clozapine content after 24 hours” value (solvent system: 0.1% acetic acid in water) does the source give for CN1CCN(C2=Nc3cc(Cl)ccc3Nc3ccccc32)CC1 [Clozapine, 8-Chloro-11-(4-methylpiperazin-1-yl)-5H-dibenzo[b,e][1,4]diazepine] here?
Answer: 4.7 mg/mL

Question: And the “clozapine content after 24 hours” value (solvent system: 1% acetic acid in water)?
Answer: 38.1 mg/mL

Question: What about the “clozapine content after 24 hours” value (solvent system: 1% citric acid in water) of the same molecule?
Answer: 27.6 mg/mL

Question: What about the “clozapine content after 24 hours” value (solvent system: 5% Transcutol P in PEG400) of the same molecule?
Answer: 91.8 mg/mL

Question: And the “clozapine content after 24 hours” value (solvent system: 5% acetic acid in water)?
Answer: 51.5 mg/mL

Question: And the “clozapine content after 24 hours” value (solvent system: 5% citric acid in water)?
Answer: 34.2 mg/mL

Question: And the “clozapine content after 24 hours” value (solvent system: 10% Transcutol P in PEG400)?
Answer: 91.3 mg/mL

Question: And the “clozapine content after 24 hours” value (solvent system: 10% acetic acid in water)?
Answer: 59.8 mg/mL

Question: And the “clozapine content after 24 hours” value (solvent system: 10% citric acid in water)?
Answer: 50.7 mg/mL

Question: And the “clozapine content after 24 hours” value (solvent system: 20% Kolliphor RH40/PEG400 (10:90))?
Answer: 72.8 mg/mL

Question: What about the “clozapine content after 24 hours” value (solvent system: 20% Transcutol P in PEG400) of the same molecule?
Answer: 99.5 mg/mL

Question: What about the “clozapine content after 24 hours” value (solvent system: 20% kolliphor RH40 in water) of the same molecule?
Answer: 7.4 mg/mL

Question: And the “clozapine content after 24 hours” value (solvent system: 40% corn oil in miglyol)?
Answer: 8.4 mg/mL

Question: What about the “clozapine content after 24 hours” value (solvent system: 50% solutol in water) of the same molecule?
Answer: 17.8 mg/mL

Question: What about the “clozapine content after 24 hours” value (solvent system: 50% solutol/PEG400 (10:90)) of the same molecule?
Answer: 81.6 mg/mL

Question: And the “clozapine content after 24 hours” value (solvent system: 100% Transcutol P)?
Answer: 151.3 mg/mL

Question: And the “clozapine content after 24 hours” value (solvent system: Caprylocaproyl macrogol-8 glycerides (Labrasol ®))?
Answer: 34.0 mg/mL

Question: And the “clozapine content after 24 hours” value (solvent system: Citrate buffer pH 3.4)?
Answer: 57.2 mg/mL

Question: And the “clozapine content after 24 hours” value (solvent system: Citrate buffer pH 3.7)?
Answer: 44.0 mg/mL

Question: And the “clozapine content after 24 hours” value (solvent system: Citrate buffer pH 4.0)?
Answer: 34.3 mg/mL

Question: What about the “clozapine content after 24 hours” value (solvent system: Citrate buffer pH 4.7) of the same molecule?
Answer: 19.9 mg/mL

Question: What about the “clozapine content after 24 hours” value (solvent system: Corn oil) of the same molecule?
Answer: 5.1 mg/mL

Question: What about the “clozapine content after 24 hours” value (solvent system: N,N′-dimethyl acetamide (DMA)) of the same molecule?
Answer: 106.8 mg/mL

Question: And the “clozapine content after 24 hours” value (solvent system: N-methyl-2-pyrrolydone (NMP))?
Answer: 409.7 mg/mL

Question: What about the “clozapine content after 24 hours” value (solvent system: PEG200) of the same molecule?
Answer: 81.8 mg/mL

Question: And the “clozapine content after 24 hours” value (solvent system: PEG400)?
Answer: 77.0 mg/mL

Question: And the “clozapine content after 24 hours” value (solvent system: PEG400/34 mmol Citrate buffer, 20:80 (V/V))?
Answer: 52.7 mg/mL

Question: And the “clozapine content after 24 hours” value (solvent system: PEG400/34 mmol Citrate buffer, 40:60 (V/V))?
Answer: 52.3 mg/mL

Question: What about the “clozapine content after 24 hours” value (solvent system: PEG400/34 mmol Citrate buffer, 60:40 (V/V)) of the same molecule?
Answer: 47.6 mg/mL

Question: What about the “clozapine content after 24 hours” value (solvent system: PEG400/34 mmol Citrate buffer, 80:20 (V/V)) of the same molecule?
Answer: 49.8 mg/mL

Question: And the “clozapine content after 24 hours” value (solvent system: PEG400/Citrate buffer pH 4.0, 50:50 (V/V))?
Answer: 33.4 mg/mL

Question: And the “clozapine content after 24 hours” value (solvent system: PEG400/Citrate buffer pH 4.0, 60:40 (V/V))?
Answer: 29.6 mg/mL

Question: And the “clozapine content after 24 hours” value (solvent system: PEG400/Citrate buffer pH 4.0, 70:30 (V/V))?
Answer: 32.1 mg/mL

Question: What about the “clozapine content after 24 hours” value (solvent system: PEG400/Citrate buffer pH 4.0, 80:20 (V/V)) of the same molecule?
Answer: 44.6 mg/mL

Question: What about the “clozapine content after 24 hours” value (solvent system: PEG400/Citrate buffer pH 4.0, 90:10 (V/V)) of the same molecule?
Answer: 56.2 mg/mL

Question: And the “clozapine content after 24 hours” value (solvent system: PEG400/water (50:50))?
Answer: 2.3 mg/mL

Question: And the “clozapine content after 24 hours” value (solvent system: PEG400/water (60:40))?
Answer: 6.5 mg/mL

Question: What about the “clozapine content after 24 hours” value (solvent system: PEG400/water (70:30)) of the same molecule?
Answer: 14.0 mg/mL

Question: And the “clozapine content after 24 hours” value (solvent system: PEG400/water (80:20))?
Answer: 31.1 mg/mL

Question: And the “clozapine content after 24 hours” value (solvent system: PEG600/water (90:10))?
Answer: 65.2 mg/mL

Question: What about the “clozapine content after 24 hours” value (solvent system: ethanol) of the same molecule?
Answer: 33.9 mg/mL

Question: What about the “clozapine content after 24 hours” value (solvent system: glycerol) of the same molecule?
Answer: 0.5 mg/mL

Question: And the “clozapine content after 24 hours” value (solvent system: miglyol)?
Answer: 10.3 mg/mL

Question: What about the “clozapine content after 24 hours” value (solvent system: water) of the same molecule?
Answer: 0.3 mg/mL
